Patent US10681909B2, “Herbicidal triazoles” (FMC Corporation, priority 2014, dated 2020)

How the values were obtained:
kochia = test: Test C postemergence; type: in vivo, Kochia scoparia
Outline: (§1)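 Preemergence: seeds sown in loam soil–sand blend and treated with test chemicals formulated in a non-phytotoxic solvent mixture containing a surfactant. Postemergence: plants grown in peat moss/vermiculite-based medium and sprayed with the same formulation at 2 to 18 cm height (1- to 4-leaf stage).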

nutsedge, yellow = test: Test C postemergence; type: in vivo, Cyperus esculentus
Outline: as §1

sedge, umbrella = test: Test B flooded paddy test; type: in vivo, Cyperus difformis; conditions: Cyperus difformis, 360 h, 125 g ai/ha, applied to paddy water at 2-leaf stage, visual rating after 13 to 15 d, scale 0 (no effect) to 100 (complete control), read-out: Plant response rating, Sedge, Umbrella, Flood
Outline: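 Pots were flooded to 3 cm above the soil at treatment, and compounds were applied directly into the paddy water. That depth was held throughout. After 13 to 15 d in a greenhouse, plants were rated visually against untreated controls.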

ryegrass, Italian = test: Test C postemergence; type: in vivo, Lolium multiflorum
Outline: as §1

barnyardgrass [1] = test: Test C postemergence; type: in vivo, Echinochloa crus-galli
Outline: as §1

oilseed rape = test: Test C postemergence; type: in vivo, Brassica napus; conditions: Oilseed Rape
Outline: as §1

morningglory = test: Test C postemergence; type: in vivo, Ipomoea coccinea
Outline: as §1

blackgrass = test: Test C postemergence; type: in vivo, Alopecurus myosuroides
Outline: as §1

velvetleaf = test: Test C postemergence; type: in vivo, Abutilon theophrasti
Outline: as §1

barnyardgrass [2] = test: Test A postemergence; type: in vivo, Echinochloa crus-galli; conditions: Echinochloa crus-galli, post-emergence, 240 h, 0 to 100 scale (0 no effect, 100 complete control), approx. 10 d, read-out: Plant response rating, Barnyardgrass
Outline: (§2)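 Pre- and postemergence spray tests in a loam soil–sand mixture: seeded soil received a directed spray, while established seedlings 2–10 cm high at the one- to two-leaf stage were treated over the top. Compounds were carried in non-phytotoxic solvent with surfactant.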

corn = test: Test C postemergence; type: in vivo, Zea mays
Outline: as §1

foxtail, giant [3] = test: Test A postemergence; type: in vivo, Setaria faberii; conditions: Setaria faberi, post-emergence, 240 h, 0 to 100 scale (0 no effect, 100 complete control), approx. 10 d, read-out: Plant response rating, Foxtail, Giant
Outline: as §2

pigweed = test: Test A postemergence; type: in vivo, Amaranthus retroflexus; conditions: Amaranthus retroflexus, post-emergence, 240 h, 0 to 100 scale (0 no effect, 100 complete control), approx. 10 d, read-out: Plant response rating, Pigweed
Outline: as §2

barnyardgrass [4] = test: Test A preemergence; type: in vivo, Echinochloa crus-galli; conditions: Echinochloa crus-galli, pre-emergence, 240 h, 0 to 100 scale (0 no effect, 100 complete control), read-out: Plant response rating, Barnyardgrass
Outline: as §2

galium = test: Test C postemergence; type: in vivo, Galium aparine
Outline: as §1

waterhemp = test: Test C postemergence; type: in vivo, Amaranthus rudis
Outline: as §1

johnsongrass = test: Test C postemergence; type: in vivo, Sorghum halepense
Outline: as §1

foxtail, giant [5] = test: Test A preemergence; type: in vivo, Setaria faberii; conditions: Setaria faberi, pre-emergence, 240 h, 0 to 100 scale (0 no effect, 100 complete control), read-out: Plant response rating, Foxtail, Giant
Outline: as §2

wheat = test: Test A postemergence; type: in vivo, Triticum aestivum; conditions: Triticum aestivum, post-emergence, 240 h, 0 to 100 scale (0 no effect, 100 complete control), approx. 10 d, read-out: Plant response rating, Wheat
Outline: as §2

crabgrass, large = test: Test C postemergence; type: in vivo, Digitaria sanguinalis
Outline: as §1

COc1nc(-c2ccc(F)cc2)nn1Cc1ccnc(C(F)(F)F)c1 [Compound 9, 4-[[3-(4-fluorophenyl)-5-methoxy-1H-1,2,4-triazol-1-yl]methyl]-2-(trifluoromethyl)pyridine]
Plant response rating (scale of 0 to 100 where 0 is no effect and 100 is complete control) (kochia; 16 g ai/ha): 95
Plant response rating (scale of 0 to 100 where 0 is no effect and 100 is complete control) (kochia; 31 g ai/ha): 90
Plant response rating (scale of 0 to 100 where 0 is no effect and 100 is complete control) (kochia; 62 g ai/ha): 90
Plant response rating (scale of 0 to 100 where 0 is no effect and 100 is complete control) (kochia; 125 g ai/ha): 90
Plant response rating (scale of 0 to 100 where 0 is no effect and 100 is complete control) (nutsedge, yellow; 16 g ai/ha): 0
Plant response rating (scale of 0 to 100 where 0 is no effect and 100 is complete control) (nutsedge, yellow; 31 g ai/ha): 0
Plant response rating (scale of 0 to 100 where 0 is no effect and 100 is complete control) (nutsedge, yellow; 62 g ai/ha): 0
Plant response rating (scale of 0 to 100 where 0 is no effect and 100 is complete control) (nutsedge, yellow; 125 g ai/ha): 5
pest or weed control at 125 g/ha (sedge, umbrella): 80%
Plant response rating (scale of 0 to 100 where 0 is no effect and 100 is complete control) (ryegrass, Italian; 16 g ai/ha): 0
Plant response rating (scale of 0 to 100 where 0 is no effect and 100 is complete control) (ryegrass, Italian; 31 g ai/ha): 5
Plant response rating (scale of 0 to 100 where 0 is no effect and 100 is complete control) (ryegrass, Italian; 62 g ai/ha): 5
Plant response rating (scale of 0 to 100 where 0 is no effect and 100 is complete control) (ryegrass, Italian; 125 g ai/ha): 5
Plant response rating (scale of 0 to 100 where 0 is no effect and 100 is complete control) (barnyardgrass [1]; 16 g ai/ha): 5
Plant response rating (scale of 0 to 100 where 0 is no effect and 100 is complete control) (barnyardgrass [1]; 31 g ai/ha): 10
Plant response rating (scale of 0 to 100 where 0 is no effect and 100 is complete control) (barnyardgrass [1]; 62 g ai/ha): 10
Plant response rating (scale of 0 to 100 where 0 is no effect and 100 is complete control) (barnyardgrass [1]; 125 g ai/ha): 20
Plant response rating (scale of 0 to 100 where 0 is no effect and 100 is complete control) (oilseed rape; 16 g ai/ha): 40
Plant response rating (scale of 0 to 100 where 0 is no effect and 100 is complete control) (oilseed rape; 31 g ai/ha): 55
Plant response rating (scale of 0 to 100 where 0 is no effect and 100 is complete control) (oilseed rape; 62 g ai/ha): 80
Plant response rating (scale of 0 to 100 where 0 is no effect and 100 is complete control) (oilseed rape; 125 g ai/ha): 70
Plant response rating (scale of 0 to 100 where 0 is no effect and 100 is complete control) (morningglory; 16 g ai/ha): 70
Plant response rating (scale of 0 to 100 where 0 is no effect and 100 is complete control) (morningglory; 31 g ai/ha): 85
Plant response rating (scale of 0 to 100 where 0 is no effect and 100 is complete control) (morningglory; 62 g ai/ha): 80
Plant response rating (scale of 0 to 100 where 0 is no effect and 100 is complete control) (morningglory; 125 g ai/ha): 75
Plant response rating (scale of 0 to 100 where 0 is no effect and 100 is complete control) (blackgrass; 16 g ai/ha): 5
Plant response rating (scale of 0 to 100 where 0 is no effect and 100 is complete control) (blackgrass; 31 g ai/ha): 5
Plant response rating (scale of 0 to 100 where 0 is no effect and 100 is complete control) (blackgrass; 62 g ai/ha): 5
Plant response rating (scale of 0 to 100 where 0 is no effect and 100 is complete control) (blackgrass; 125 g ai/ha): 15
Plant response rating (scale of 0 to 100 where 0 is no effect and 100 is complete control) (velvetleaf; 16 g ai/ha): 25
Plant response rating (scale of 0 to 100 where 0 is no effect and 100 is complete control) (velvetleaf; 31 g ai/ha): 35
Plant response rating (scale of 0 to 100 where 0 is no effect and 100 is complete control) (velvetleaf; 62 g ai/ha): 35
Plant response rating (scale of 0 to 100 where 0 is no effect and 100 is complete control) (velvetleaf; 125 g ai/ha): 35
pest or weed control at 125 g/ha (barnyardgrass [2]; 125 g ai/ha): 70%
pest or weed control at 500 g/ha (barnyardgrass [2]; 500 g ai/ha): 90%
Plant response rating (scale of 0 to 100 where 0 is no effect and 100 is complete control) (corn; 16 g ai/ha): 10
Plant response rating (scale of 0 to 100 where 0 is no effect and 100 is complete control) (corn; 31 g ai/ha): 20
Plant response rating (scale of 0 to 100 where 0 is no effect and 100 is complete control) (corn; 62 g ai/ha): 35
Plant response rating (scale of 0 to 100 where 0 is no effect and 100 is complete control) (corn; 125 g ai/ha): 20
pest or weed control at 125 g/ha (foxtail, giant [3]; 125 g ai/ha): 80%
pest or weed control at 500 g/ha (foxtail, giant [3]; 500 g ai/ha): 100%
pest or weed control at 125 g/ha (pigweed; 125 g ai/ha): 100%
pest or weed control at 500 g/ha (pigweed; 500 g ai/ha): 100%
pest or weed control at 125 g/ha (barnyardgrass [4]; 125 g ai/ha): 80%
pest or weed control at 500 g/ha (barnyardgrass [4]; 500 g ai/ha, approx. 10 d): 100%
Plant response rating (scale of 0 to 100 where 0 is no effect and 100 is complete control) (galium; 16 g ai/ha): 50
Plant response rating (scale of 0 to 100 where 0 is no effect and 100 is complete control) (galium; 31 g ai/ha): 70
Plant response rating (scale of 0 to 100 where 0 is no effect and 100 is complete control) (galium; 62 g ai/ha): 80
Plant response rating (scale of 0 to 100 where 0 is no effect and 100 is complete control) (galium; 125 g ai/ha): 65
Plant response rating (scale of 0 to 100 where 0 is no effect and 100 is complete control) (waterhemp; 16 g ai/ha): 70
Plant response rating (scale of 0 to 100 where 0 is no effect and 100 is complete control) (waterhemp; 31 g ai/ha): 65
Plant response rating (scale of 0 to 100 where 0 is no effect and 100 is complete control) (waterhemp; 62 g ai/ha): 80
Plant response rating (scale of 0 to 100 where 0 is no effect and 100 is complete control) (waterhemp; 125 g ai/ha): 85
Plant response rating (scale of 0 to 100 where 0 is no effect and 100 is complete control) (johnsongrass; 16 g ai/ha): 0
Plant response rating (scale of 0 to 100 where 0 is no effect and 100 is complete control) (johnsongrass; 31 g ai/ha): 5
Plant response rating (scale of 0 to 100 where 0 is no effect and 100 is complete control) (johnsongrass; 62 g ai/ha): 5
Plant response rating (scale of 0 to 100 where 0 is no effect and 100 is complete control) (johnsongrass; 125 g ai/ha): 10
pest or weed control at 125 g/ha (foxtail, giant [5]; 125 g ai/ha): 100%
pest or weed control at 500 g/ha (foxtail, giant [5]; 500 g ai/ha, approx. 10 d): 100%
plant injury at 125 g/ha (wheat; 125 g ai/ha): 10%
plant injury at 500 g/ha (wheat; 500 g ai/ha): 10%
Plant response rating (scale of 0 to 100 where 0 is no effect and 100 is complete control) (crabgrass, large; 16 g ai/ha): 10
Plant response rating (scale of 0 to 100 where 0 is no effect and 100 is complete control) (crabgrass, large; 31 g ai/ha): 10
Plant response rating (scale of 0 to 100 where 0 is no effect and 100 is complete control) (crabgrass, large; 62 g ai/ha): 25
Plant response rating (scale of 0 to 100 where 0 is no effect and 100 is complete control) (crabgrass, large; 125 g ai/ha): 25
